The source of these data is ChEMBL document CHEMBL1201862, “PubChem BioAssay data set” (2004).

Assay [1] can be described thus: HeLa cell viability loss – 24 h, dry powder, set 2, cytotoxicity control, dose response (AID 651774). The assay is classed as functional, cell-based.
Assay [2] in a line: Luminescence Cell-Based Dose Retest to Confirm Inhibitors of Cancer Stem Cells. [Related pubchem assays (depositor defined):AID2717, AID2721]. The assay is classed as functional. The conditions noted are these: Homo sapiens.
A short description of assay [3]: viability of HCT116 lacking mutant beta-catenin – cell-based, human colon tumor, dose response (AID 1045).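 Also: HCT116 colon tumor cells with beta catenin knocked out; cells exposed to compound for 60 hours.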 It counts as functional.
The nature of assay [4]: potency of ADAM10 substrate cleavage blockers – biochemical, QFRET, dose response (AID 743254).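 Also: ADAM10 enzyme with the DM2 quenched FRET peptide as substrate; EDANS fluorescence gain as the protease cuts the substrate; inhibitor potency against ADAM10 proteolytic activity.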
Assay [5] deals with Cytochrome P450 2C9 (Homo sapiens, UniProt P11712).
Assay [6] addresses Disintegrin and metalloproteinase domain-containing protein 17 (Homo sapiens, UniProt P78536). The assay can be described thus: inhibition of ADAM17 substrate cleavage – biochemical, quenched FRET substrate, counter-screen for ADAM10 exosite inhibitor project, dose response (AID 743253). (A counterscreen serves to expose hits that act by an unwanted route or on another target.)

The nature of assay [7]: viability of PTEN-deleted HCT116 cells – cell-based, HCT116 PTEN knockout, dose response (AID 1047).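 Also: HCT116 colon tumor cells with PTEN knocked out; cells exposed to compound for 60 hours before readout; potency for loss of cell viability measured by luminescence.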 It counts as functional.
Assay [8] can be described thus: blockers of bursicon-stimulated LGR2 cAMP reporter – cell-based, HEK293, CRE-luciferase reporter, cherry pick, set 2, dose response (AID 743343).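 Also: transfected cells were stimulated with diluted bursicon conditioned medium after compound addition.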 It counts as functional. For orientation: Reporter assays use an easily measured gene product as a stand-in for the process of interest.
The nature of assay [9]: A549 cell cytotoxicity, dose response, cytotoxicity control, plate reader, cherry-pick, antagonist series (AID 743412). It counts as functional, cell-based.
Assay [10] in a line: blockade of melanocortin 4 receptor signaling – cell-based, plate reader, cherry pick, counter-screen for LGR2 antagonist project, dose response (AID 743444).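 Also: transfected HEK 293 cells stimulated with alpha-MSH peptide; potency of inhibitors of the alpha-MSH evoked signal.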 The assay is classed as functional.
The nature of assay [11]: toxicity toward HepG2 liver cells – cell-based, plate reader, cherry-pick, antagonist series, cytotoxicity control, dose response (AID 743416). The assay is classed as functional.
Assay [12] in a line: viability loss in HEK293 cells – cell-based, plate reader, cherry-picked samples, cytotoxicity control, dose response (AID 743446). It counts as functional.
A short description of assay [13]: reduced cellular PGC1a acetyl-lysine signal – cell-based, cherry-picked samples, dose response (AID 720514).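 Also: potency may reflect raised or lowered acetylation signal.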 The assay is classed as functional.
Assay [14] in a line: activation of miR-122 Renilla sensor silencing – cell-based, Huh7 psiCHECK-miR122, Renilla luciferase, cherry-picked, dose response (AID 651956).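 Also: huh7 hepatoma cells stably carrying a psiCHECK-2 miR-122 sensor plasmid; renilla luciferase signal reporting endogenous miR-122 activity after 48 h compound exposure.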 The assay is classed as functional.
Assay [15] in a line: general mammalian cell viability loss – inhibitor set, cherry-pick, set 2, cytotoxicity control for miR-122 modulator project, dose response (AID 720697). The assay is classed as functional, cell-based.
Assay [16] is described as follows: growth inhibition of PfATP4-mutant resistant parasites – NITD609-resistant line, SYBR Green, dry powder, dose response (AID 1159571).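 Also: parasites synchronized at ring stage by sorbitol before testing.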 It counts as functional, cell-based.
Assay [17] can be described thus: Dd2 malaria parasite growth inhibition potency – SYBR Green, dry powder samples, dose response (AID 1159566).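 Also: potency for growth inhibition with lower SYBR green DNA signal.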 The assay is classed as functional, cell-based.
The nature of assay [18]: growth inhibition of yeast DHODH-expressing 3D7 parasites – SYBR Green, dry powder samples, dose response (AID 1159570).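 Also: parasite growth measured after 72 hours of compound exposure.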 It counts as functional, cell-based.
A short description of assay [19]: P. falciparum Dd2 growth inhibitors, dose response, SYBR Green, cherry-picked samples (AID 1159567). The assay is classed as functional, cell-based.
Assay [20] is described as follows: intracellular Trypanosoma cruzi inhibitors in host cells – cell-based, plate reader, cherry-pick samples, set 3, dose response (AID 651818).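 Also: compounds incubated with infected cells for about four days.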 The assay is classed as functional.
Assay [21] in a line: toxicity to human hepatoma HepG2 cells – cell-based, cherry-picked samples, cytotoxicity control, dose response (AID 1159577). The assay is classed as functional.
A short description of assay [22]: toxicity to human HepG2 hepatoma cells – cell-based, plate reader, dry powder samples, cytotoxicity control, dose response (AID 1159569).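 Also: inhibitor potency with signal falling toward the positive control level.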 It counts as functional.
A short description of assay [23]: HEK293 Cytotoxicity Assay Measured in Cell-Based System Using Plate Reader - 7071-01_Inhibitor_Dose_CherryPick_Activity_Set2. The assay is classed as functional.
Assay [24] deals with HEK293. Kind of assay: viability loss in HEK293T cells – cell-based, ATP luminescence, cherry-pick samples, cytotoxicity control, dose response (AID 687005).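 Also: cells exposed to compound for 48 hours.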 The assay is classed as functional. The conditions noted are these: Homo sapiens.
Assay [25] deals with Paired box protein Pax-8 (Homo sapiens, UniProt Q06710). Kind of assay: PAX8 transcriptional activity inhibition in RMG-I – RMG-I cells, luciferase, cherry-pick, dose response (AID 687027).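 Also: luciferase reporter driven by Pax8 target thyroperoxidase promoter measured by SteadyGlo luminescence.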 It counts as functional, cell-based.
The nature of assay [26]: OVCAR-3 cell viability loss – plate reader, dry powder samples, PAX8 inhibitor project, dose response (AID 743044). The assay is classed as functional, cell-based.
A short description of assay [27]: IGROV1 cell killing – plate reader, dry powder samples, PAX8 inhibitor project, dose response (AID 743043). The assay is classed as functional, cell-based. The conditions noted are these: IGROV-1.
Assay [28] in a line: A2780 cell killing – plate reader, dry powder samples, cytotoxicity control, dose response (AID 743046). It counts as functional, cell-based.
A short description of assay [29]: OVCAR8 cell viability loss – plate reader, dry powder samples, PAX8 project, dose response (AID 743197). It counts as functional, cell-based. The conditions noted are these: OVCAR-8.
The nature of assay [30]: viability loss in HEK293 kidney cells – cell-based, cherry-picks, set 5, cytotoxicity control, dose response (AID 1053117). The assay is classed as functional.

Active and inactive are the calls of the source. A value given as a limit tells only on which side of the number the result lay.

Chain of Disintegrin and metalloproteinase domain-containing protein 17 (P78536 whole entry, the tested form may be a part): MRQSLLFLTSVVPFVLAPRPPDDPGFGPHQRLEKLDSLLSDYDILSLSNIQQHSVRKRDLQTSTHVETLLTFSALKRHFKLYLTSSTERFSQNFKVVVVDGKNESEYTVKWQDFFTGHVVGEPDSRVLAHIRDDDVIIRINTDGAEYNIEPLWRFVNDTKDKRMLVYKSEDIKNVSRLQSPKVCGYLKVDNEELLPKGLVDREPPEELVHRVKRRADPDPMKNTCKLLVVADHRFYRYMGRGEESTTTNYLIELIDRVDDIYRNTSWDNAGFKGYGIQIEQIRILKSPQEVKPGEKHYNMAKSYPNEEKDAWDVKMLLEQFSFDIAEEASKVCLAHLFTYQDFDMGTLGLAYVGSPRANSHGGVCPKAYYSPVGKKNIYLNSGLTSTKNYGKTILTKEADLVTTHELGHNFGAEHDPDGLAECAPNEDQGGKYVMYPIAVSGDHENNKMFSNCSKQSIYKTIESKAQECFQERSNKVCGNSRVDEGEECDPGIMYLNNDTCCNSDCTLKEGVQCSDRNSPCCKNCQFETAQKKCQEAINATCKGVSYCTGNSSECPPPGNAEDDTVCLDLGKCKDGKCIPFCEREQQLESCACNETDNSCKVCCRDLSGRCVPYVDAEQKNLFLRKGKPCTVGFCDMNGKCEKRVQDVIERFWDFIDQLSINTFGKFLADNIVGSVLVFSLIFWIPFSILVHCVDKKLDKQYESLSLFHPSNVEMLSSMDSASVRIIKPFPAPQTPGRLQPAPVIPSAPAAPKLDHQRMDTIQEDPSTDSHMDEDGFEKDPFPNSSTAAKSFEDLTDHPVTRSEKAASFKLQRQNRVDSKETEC
Chain of Paired box protein Pax-8 (Q06710 whole entry): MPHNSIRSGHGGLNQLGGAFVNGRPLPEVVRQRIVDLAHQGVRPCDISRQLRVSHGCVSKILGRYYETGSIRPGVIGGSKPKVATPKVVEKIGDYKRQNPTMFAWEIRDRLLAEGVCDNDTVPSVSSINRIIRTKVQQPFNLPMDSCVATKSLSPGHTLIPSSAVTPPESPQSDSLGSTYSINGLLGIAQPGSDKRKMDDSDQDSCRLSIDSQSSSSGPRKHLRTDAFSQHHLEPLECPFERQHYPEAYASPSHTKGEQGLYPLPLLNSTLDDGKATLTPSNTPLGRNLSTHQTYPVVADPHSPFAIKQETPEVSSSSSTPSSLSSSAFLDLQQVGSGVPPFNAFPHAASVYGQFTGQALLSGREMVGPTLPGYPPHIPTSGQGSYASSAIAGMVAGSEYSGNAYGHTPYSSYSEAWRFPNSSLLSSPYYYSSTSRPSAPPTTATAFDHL
Chain of Cytochrome P450 2C9 (P11712 whole entry, the tested form may be a part): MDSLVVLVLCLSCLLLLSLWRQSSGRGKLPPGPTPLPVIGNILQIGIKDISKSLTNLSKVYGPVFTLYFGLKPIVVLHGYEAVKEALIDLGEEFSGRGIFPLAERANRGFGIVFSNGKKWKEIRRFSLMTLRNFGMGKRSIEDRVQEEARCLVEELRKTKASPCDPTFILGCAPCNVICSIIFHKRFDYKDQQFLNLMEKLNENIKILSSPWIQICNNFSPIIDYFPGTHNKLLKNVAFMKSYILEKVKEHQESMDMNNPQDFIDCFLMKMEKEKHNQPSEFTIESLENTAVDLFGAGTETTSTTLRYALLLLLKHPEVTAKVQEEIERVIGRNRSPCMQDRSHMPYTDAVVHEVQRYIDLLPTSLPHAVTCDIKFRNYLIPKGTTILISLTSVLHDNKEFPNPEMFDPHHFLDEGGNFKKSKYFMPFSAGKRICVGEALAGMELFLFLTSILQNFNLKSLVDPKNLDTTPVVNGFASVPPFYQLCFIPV

As usually defined, the AC50 is the concentration at which the activity in the assay is half-maximal. On to `CCn1nnnc1NCc1cccn1C`, for which, in assay [1], the AC50 was 31.1 µM (active).
Usually EC50 stands for the concentration giving half of the maximal effect. One may read the IC50 as the point on the concentration scale where inhibition reaches its midpoint. `C=C(C)COc1ccc(-c2[nH]nc(C)c2-c2ccc(OC)cc2)c(O)c1`: the values for the AC50 in [2] and in [5] were 3.41 µM (active) and 25.1 µM (inconclusive), respectively. Besides, the concentration giving a half-maximal response (EC50) in assay [3] was 18 µM (active); in assay [7], 17.7 µM (active). For the same molecule, the IC50 was 9.09 µM (active) in assay [4] and > 69.6 µM (inactive) in assay [6].
Regarding `CCn1nnnc1NCc1ccc(N2CCCC2)cc1`, in assay [1], the AC50 was > 70 µM (inactive).
With `COc1ccc2nc(NC(=O)c3ccco3)sc2c1`, the AC50 in assay [8] was 6.48 µM (active); in assay [9] it was > 52 µM (inactive); in assay [10], 9.96 µM (active); in [11], > 52 µM (inactive); in [12], > 52 µM (inactive).
On to `FC(F)(F)c1cccc(NC(S)=NCC2COc3ccccc3O2)c1` (stereo unspecified), for which the IC50 in assay [4] is 16.8 µM (inactive); in assay [6], > 69.5 µM (inactive).
`CCN(CC(=O)Nc1ccccc1C(F)(F)F)C(=O)CCSc1ccc(F)cc1`: the AC50 in assay [13] was 27 µM (active).
With `CCC(=O)N1[C@H](CO)[C@H](c2ccccc2)[C@H]1CN(C(C)C)S(C)(=O)=O`, the AC50 in [14] was 35.4 µM (active); in assay [15] it was 0.525 µM (active).
Turning to `C[C@H](CO)N1C[C@H](C)[C@H](CN(C)Cc2ccc(C(F)(F)F)cc2)Oc2c(NC(=O)c3nc4ccccc4s3)cccc2C1=O`, the AC50 is 1.69 µM (active) in [16]; 0.823 µM (active) in assay [17]; 3.74 µM (active) in assay [18]; 2.71 µM (active) in assay [19]; 0.94 µM (active) in assay [20]; > 39 µM (inactive) in [21]. Also, the AC50 in assay [22] is 46.2 µM (active).
On to `O=C(C[C@@H]1CC[C@@H]2[C@H](COC[C@H](O)CN2S(=O)(=O)c2ccc(Oc3ccccc3)cc2)O1)NC1CCC1`, for which the AC50 in assay [23] and in [24] was > 52 µM (inactive) each time.
Turning to `C[C@@H]1CCCCO[C@H](CN(C)C(=O)C2CCCCC2)[C@@H](C)CN([C@@H](C)CO)C(=O)c2cc(NC(=O)Nc3ccc(F)cc3)ccc2O1`, the AC50 is 4.07 µM (active) in assay [25]; 38.4 µM (active) in assay [26]; 63.4 µM (active) in [27]; 48.1 µM (active) in assay [28]; 69.9 µM (active) in assay [29].
Take `C[C@H]1CN([C@@H](C)CO)C(=O)c2cc(NS(=O)(=O)c3ccc(F)cc3)ccc2O[C@@H]1CN(C)S(=O)(=O)c1ccccc1`: the AC50 in [23] and in assay [24] was > 52 µM (inactive) in each case.
Consider `CCCNC(=O)N(C)C[C@H]1Oc2cc(C#CCC(C)C)ccc2S(=O)(=O)N([C@@H](C)CO)C[C@H]1C`, for which, in assay [13], the AC50 is 26.5 µM (active).
Consider `O=S(=O)(c1ccccc1F)N1CC[C@H]2[C@H](CO)Nc3ccc(-c4cccc(F)c4)cc3[C@H]21`, for which, in assay [30], the AC50 was 46.2 µM (active).
In the case of `N#C[C@@H]1[C@@H](c2ccc(C3=CCCCC3)cc2)[C@H](CO)N1C(=O)NC1CCCC1`, the half-maximal activity concentration (AC50) in [16] was 2.61 µM (active); in assay [17] it was 1.46 µM (active); in assay [18] it was 3.06 µM (active); in [19], 2.28 µM (active); in [22], 35.6 µM (active).
